Like-named read-outs stand apart in the source and are kept apart here.
How the values were obtained:
Format in all cases: cell-based, human
[1] = system: UACC-257; assay: NCI-60 cell line screen (SRB), UACC-257
Protocol: (§1) Drug sensitivity data are provided as GI50s (concentrations required to inhibit growth by 50%). The first row of the text file identifies cell lines, separated by tabs. Subsequent rows contain compound number, compound name, and GI50 for each cell line, each separated by a tab. […] For a typical screening experiment, cells are inoculated into 96 well microtiter plates in 100 μL at plating densities ranging from 5,000 to 40,000 cells/well depending on the doubling time of individual cell lines. After cell inoculation, the microtiter plates are incubated at 37° C., 5% CO2, 95% air and 100% relative humidity for 24 h prior to addition of experimental drugs. After 24 h, two plates of each cell line are fixed in situ with TCA, to represent a measurement of the cell population for each cell line at the time of drug addition (Tz). Experimental drugs are solubilized in dimethyl sulfoxide at 400-fold the desired final maximum test concentration and stored frozen prior to use. At the time of drug addition, an aliquot of frozen concentrate is thawed and diluted to twice the desired final maximum test concentration with complete medium containing 50 μg/ml gentamicin. Additional four, 10-fold or one-half log serial dilutions are made to provide a total of five drug concentrations plus control. Aliquots of 100 μl of these different drug dilutions are added to the appropriate microtiter wells already containing 100 μl of medium, resulting in the required final drug concentrations. Following drug addition, the plates are incubated for an additional 48 h at 37° C., 5% CO2, 95% air, and 100% relative humidity. For adherent cells, the assay is terminated by the addition of cold TCA. Cells are fixed in situ by the gentle addition of 50 μl of cold 50% (w/v) TCA (final concentration, 10% TCA) and incubated for 60 minutes at 4° C. The supernatant is discarded, and the plates are washed five times with tap water and air dried. Sulforhodamine B (SRB) solution (100 μl) at 0.4% (w/v) in 1% acetic acid is added to each well, and plates are incubated for 10 minutes at room temperature. After staining, unbound dye is removed by washing five times with 1% acetic acid and the plates are air dried. Bound stain is subsequently solubilized with 10 mM trizma base, and the absorbance is read on an automated plate reader at a wavelength of 515 nm. For suspension cells, the methodology is the same except that the assay is terminated by fixing settled cells at the bottom of the wells by gently adding 50 μl of 80% TCA (final concentration, 16% TCA). Using the seven absorbance measurements [time zero, (Tz), control growth, (C), and test growth in the presence of drug at the five concentration levels (Ti)], the percentage growth is calculated at each of the drug concentrations levels. […]

[2] = system: RXF 393; assay: NCI-60 cell line screen (SRB), RXF 393
Protocol: as §1

[3] = system: OVCAR-5; assay: NCI-60 cell line screen (SRB), OVCAR-5
Protocol: as §1

[4] = system: K-562; assay: NCI-60 cell line screen (SRB), K-562
Protocol: as §1

[5] = system: TK-10; assay: NCI-60 cell line screen (SRB), TK-10
Protocol: as §1

[6] = system: U-251; assay: NCI-60 cell line screen (SRB), U-251
Protocol: as §1

[7] = system: HOP-62; assay: NCI-60 cell line screen (SRB), HOP-62
Protocol: as §1

[8] = system: SK-MEL-2; assay: NCI-60 cell line screen (SRB), SK-MEL-2
Protocol: as §1

[9] = system: ACHN; assay: NCI-60 cell line screen (SRB), ACHN
Protocol: as §1

[10] = system: HOP-92; assay: NCI-60 cell line screen (SRB), HOP-92
Protocol: as §1

[11] = system: UO-31; assay: NCI-60 cell line screen (SRB), UO-31
Protocol: as §1

[12] = system: UACC-62; assay: NCI-60 cell line screen (SRB), UACC-62
Protocol: as §1

[13] = system: MDA-MB-231/ATCC; assay: NCI-60 cell line screen (SRB), MDA-MB-231/ATCC
Protocol: as §1

[14] = system: NCI-H522; assay: NCI-60 cell line screen (SRB), NCI-H522
Protocol: as §1

[15] = system: SK-OV-3; assay: NCI-60 cell line screen (SRB), SK-OV-3
Protocol: as §1

[16] = system: CNS Cancer cell lines; assay: NCI-60 cell line screen, CNS Cancer panel average; details: read-out: GI50 Average
Protocol: as §1

[17] = system: Prostate Cancer cell lines; assay: NCI-60 cell line screen, Prostate Cancer panel average; details: read-out: GI50 Average
Protocol: as §1

[18] = system: MALME-3M; assay: NCI-60 cell line screen (SRB), MALME-3M
Protocol: as §1

[19] = system: Breast Cancer cell lines; assay: NCI-60 cell line screen, Breast Cancer panel average; details: read-out: GI50 Average
Protocol: as §1

With CCCC[Si](C)(C)COc1ccc(C(=O)N[C@@H](Cc2ccc(-c3ccccc3)cc2)C(=O)NC2CC(C)(C)NC(C)(C)C2)cc1 [GH1504, N^α-{4-[(butyldimethylsilyl)methoxy]-benzoyl}-N-(2,2,6,6-tetramethylpiperidin-4-yl)-(4-phenyl-L-phenylalaninamide)] the GI50 ([1]; Homo sapiens, UACC-257, 48 h) was 1780 nM, the GI50 ([2]; Homo sapiens, RXF 393, 48 h) was 179 nM and the GI50 ([3]; Homo sapiens, OVCAR-5, 48 h) was 1810 nM. For the same compound, the GI50 ([4]; Homo sapiens, K562, 48 h) was 386 nM, the GI50 ([5]; Homo sapiens, TK-10, 48 h) was 1110 nM and the GI50 ([6]; Homo sapiens, U-251, 48 h) was 238 nM. It also gave a GI50 ([7]; Homo sapiens, HOP-62, 48 h) of 1360 nM, a GI50 ([8]; Homo sapiens, SK-MEL-2, 48 h) of 944 nM and a GI50 ([9]; Homo sapiens, 48 h) of 402 nM. It also gave a GI50 ([10]; Homo sapiens, HOP-92, 48 h) of 1370 nM, a GI50 ([11]; Homo sapiens, UO-31, 48 h) of 1550 nM and a GI50 ([12]; Homo sapiens, UACC-62, 48 h) of 1150 nM. The GI50 ([13]; Homo sapiens, MDA-MB-231, 48 h) was 880 nM, the GI50 ([14]; Homo sapiens, NCI-H522, 48 h) was 1060 nM and the GI50 ([15]; Homo sapiens, SK-OV-3, 48 h) was 2120 nM. For the same compound, the GI50 ([16]; Homo sapiens) was 1170 nM, the GI50 ([17]; Homo sapiens) was 834 nM and the GI50 ([18]; Homo sapiens, Malme-3M, 48 h) was 1750 nM. For the same compound, the GI50 ([19]; Homo sapiens) was 1170 nM.

Compound CCOP(=O)(OCC)C(NC(=O)[C@H](Cc1ccc(-c2ccccc2)cc1)NC(=O)c1ccc(OCCC[Si](C)(C)C)cc1)P(=O)(OCC)OCC [GH1505, N^α-{4-[3-(trimethylsilyl)propoxy]-benzoyl}-N-[bis(dietoxyphosphoryl)methyl]-(4-phenyl-L-phenylalaninamide)] has a GI50 ([1]; Melanoma, UACC-257, 48 h drug incubation, read-out: GI50) of 2420 nM, a GI50 ([2]; Renal Cancer, RXF 393, 48 h drug incubation, read-out: GI50) of 1870 nM and a GI50 ([3]; Ovarian Cancer, OVCAR-5, 48 h drug incubation, read-out: GI50) of 1710 nM. It also gave a GI50 ([4]; Leukemia, K-562, 48 h drug incubation, read-out: GI50) of 3460 nM, a GI50 ([5]; Renal Cancer, TK-10, 48 h drug incubation, read-out: GI50) of 2500 nM and a GI50 ([6]; CNS Cancer, U-251, 48 h drug incubation, read-out: GI50) of 2090 nM. It also gave a GI50 ([7]; Non-Small Cell Lung Cancer, HOP-62, 48 h drug incubation, read-out: GI50) of 2000 nM, a GI50 ([8]; Melanoma, SK-MEL-2, 48 h drug incubation, read-out: GI50) of 2110 nM and a GI50 ([9]; Renal Cancer, 48 h drug incubation, read-out: GI50) of 2270 nM. For the same compound, the GI50 ([10]; Non-Small Cell Lung Cancer, HOP-92, 48 h drug incubation, read-out: GI50) was 2090 nM, the GI50 ([11]; Renal Cancer, UO-31, 48 h drug incubation, read-out: GI50) was 2770 nM and the GI50 ([12]; Melanoma, UACC-62, 48 h drug incubation, read-out: GI50) was 1620 nM. The GI50 ([13]; Breast Cancer, MDA-MB-231/ATCC, 48 h drug incubation, read-out: GI50) was 1620 nM, the GI50 ([14]; Non-Small Cell Lung Cancer, NCI-H522, 48 h drug incubation, read-out: GI50) was 2020 nM and the GI50 ([15]; Ovarian Cancer, SK-OV-3, 48 h drug incubation, read-out: GI50) was 2590 nM. It also gave a GI50 ([16]; average over CNS Cancer panel) of 2010 nM, a GI50 ([17]; average over Prostate Cancer panel) of 2020 nM and a GI50 ([18]; Melanoma, MALME-3M, 48 h drug incubation, read-out: GI50) of 1930 nM. The GI50 ([19]; average over Breast Cancer panel) was 2170 nM.

— patent US9828393B2, “Silylalkyloxyaryl compounds and methods for treating cancer” (THE REGENTS OF THE UNIVERSITY OF COLORADO, a body corporate, priority 2013, dated 2017)
